Experimental data: PubChem BioAssay (NCI)
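These data come from cells grown in 96-well plates and exposed to compound for 48 hours at five concentrations. GI50: concentration for 50% inhibition of growth. Definition used: TGI = concentration required for complete inhibition of growth.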

Key:
Assay in all cases: NCI-60 cell line screen, 48 h
[1] = tested on: HCT-116 colon
[2] = tested on: SNB-19 CNS
[3] = tested on: OVCAR-3 ovarian
[4] = tested on: NCI-H23 lung
[5] = tested on: PC-3 prostate
[6] = tested on: KM12 colon
[7] = tested on: HCC-2998 colon
[8] = tested on: HOP-92 NSCLC
[9] = tested on: 786-0 renal
[10] = tested on: CAKI-1 renal
[11] = tested on: U251 CNS
[12] = tested on: SNB-75 CNS
[13] = tested on: OVCAR-5 ovarian
[14] = tested on: SK-MEL-5 melanoma
[15] = tested on: OVCAR-8 ovarian
[16] = tested on: COLO 205 colon
[17] = tested on: HT29 colon
[18] = tested on: SN12C renal
[19] = tested on: RPMI-8226 leukemia
[20] = tested on: SK-OV-3 ovarian
[21] = tested on: SK-MEL-2 melanoma
[22] = tested on: NCI-H522 lung
[23] = tested on: ACHN renal
[24] = tested on: M14 melanoma
[25] = tested on: UO-31 renal
[26] = tested on: SW-620 colon
[27] = tested on: HS 578T breast
[28] = tested on: LOX IMVI melanoma
[29] = tested on: UACC-257 melanoma
[30] = tested on: EKVX NSCLC
[31] = tested on: MCF7 breast
[32] = tested on: RXF 393 renal
[33] = tested on: HCT-15 colon
[34] = tested on: SF-539 CNS
[35] = tested on: A498 renal
[36] = tested on: NCI/ADR-RES ovarian
[37] = tested on: IGROV1 ovarian
[38] = tested on: BT-549 breast
[39] = tested on: A549 NSCLC
[40] = tested on: CCRF-CEM leukemia
[41] = tested on: SF-295 CNS
[42] = tested on: SK-MEL-28 melanoma
[43] = tested on: OVCAR-4 ovarian
[44] = tested on: HL-60(TB) leukemia
[45] = tested on: HOP-62 NSCLC
[46] = tested on: T-47D breast
[47] = tested on: TK-10 renal
[48] = tested on: MDA-MB-435
[49] = tested on: NCI-H460 lung
[50] = tested on: DU-145 prostate
[51] = tested on: MDA-MB-231 breast
[52] = tested on: SF-268 CNS
[53] = tested on: MALME-3M melanoma
[54] = tested on: UACC-62 melanoma
[55] = tested on: NCI-H226 lung

Structure (SMILES): Cc1cccc2c(C(=O)O[C@H](C(N)=O)[C@]3(C)CO3)cccc12
- GI50 [1]: 135 nM
- TGI [1]: 5510 nM
- GI50 [2]: 5230 nM
- TGI [2]: > 61700 nM
- GI50 [3]: 2070 nM
- TGI [3]: 13300 nM
- GI50 [4]: 1130 nM
- TGI [4]: 3110 nM
- GI50 [5]: 1830 nM
- TGI [5]: > 22500 nM
- GI50 [6]: 6650 nM
- TGI [6]: 42900 nM
- GI50 [7]: 1240 nM
- TGI [7]: 3330 nM
- GI50 [8]: 2280 nM
- TGI [8]: 11400 nM
- GI50 [9]: 1400 nM
- TGI [9]: 8210 nM
- GI50 [10]: 1330 nM
- TGI [10]: 11600 nM
- GI50 [11]: 690 nM
- TGI [11]: 8070 nM
- GI50 [12]: 2810 nM
- TGI [12]: 13100 nM
- GI50 [13]: 3120 nM
- TGI [13]: > 34400 nM
- GI50 [14]: 1230 nM
- TGI [14]: 3040 nM
- GI50 [15]: 465 nM
- TGI [15]: 26800 nM
- GI50 [16]: 2370 nM
- TGI [16]: 13400 nM
- GI50 [17]: 693 nM
- GI50 [18]: 271 nM
- TGI [18]: 2580 nM
- GI50 [19]: 1710 nM
- GI50 [20]: 7480 nM
- TGI [20]: 24400 nM
- GI50 [21]: 1720 nM
- TGI [21]: 8960 nM
- GI50 [22]: 1390 nM
- TGI [22]: 7820 nM
- GI50 [23]: 302 nM
- TGI [23]: 2670 nM
- GI50 [24]: 938 nM
- TGI [24]: 2880 nM
- GI50 [25]: 1490 nM
- TGI [25]: 7150 nM
- GI50 [26]: 351 nM
- TGI [26]: > 79900 nM
- GI50 [27]: 3520 nM
- TGI [27]: > 26800 nM
- GI50 [28]: 92.6 nM
- TGI [28]: 1780 nM
- GI50 [29]: 4380 nM
- TGI [29]: > 41800 nM
- GI50 [30]: 3930 nM
- TGI [30]: 13500 nM
- GI50 [31]: 342 nM
- TGI [31]: > 100000 nM
- GI50 [32]: 3760 nM
- TGI [32]: > 100000 nM
- GI50 [33]: 1690 nM
- TGI [33]: 7700 nM
- GI50 [34]: 496 nM
- TGI [34]: 1570 nM
- GI50 [35]: 13300 nM
- TGI [35]: 41200 nM
- GI50 [36]: 904 nM
- TGI [36]: 6340 nM
- GI50 [37]: 817 nM
- TGI [37]: > 22400 nM
- GI50 [38]: 1950 nM
- TGI [38]: 6070 nM
- GI50 [39]: 3660 nM
- TGI [39]: > 100000 nM
- GI50 [40]: 599 nM
- GI50 [41]: 2110 nM
- TGI [41]: 19200 nM
- GI50 [42]: 1910 nM
- TGI [42]: 5490 nM
- GI50 [43]: 3390 nM
- TGI [43]: > 55900 nM
- GI50 [44]: > 100000 nM
- TGI [44]: > 100000 nM
- GI50 [45]: 1120 nM
- TGI [45]: 4660 nM
- GI50 [46]: 2750 nM
- TGI [46]: 15900 nM
- GI50 [47]: 6020 nM
- TGI [47]: 33300 nM
- GI50 [48]: 4750 nM
- TGI [48]: 26800 nM
- GI50 [49]: 4310 nM
- TGI [49]: > 41500 nM
- GI50 [50]: 1170 nM
- TGI [50]: 5890 nM
- GI50 [51]: 1990 nM
- TGI [51]: 6570 nM
- GI50 [52]: 2300 nM
- TGI [52]: > 100000 nM
- GI50 [53]: 3970 nM
- TGI [53]: 10600 nM
- GI50 [54]: 481 nM
- TGI [54]: 1750 nM
- GI50 [55]: 556 nM
- TGI [55]: 2210 nM

Structure (SMILES): CCCCCCCCc1cc[n+](CC(=O)c2ccc(Br)cc2)cc1
- GI50 [1]: 1190 nM
- TGI [1]: 2490 nM
- GI50 [2]: 1590 nM
- TGI [2]: 3310 nM
- GI50 [3]: 1440 nM
- TGI [3]: 2750 nM
- GI50 [4]: 1480 nM
- TGI [4]: 2990 nM
- GI50 [5]: 1510 nM
- TGI [5]: 3000 nM
- GI50 [6]: 1490 nM
- TGI [6]: 2810 nM
- GI50 [7]: 1610 nM
- TGI [7]: 2960 nM
- GI50 [8]: 1470 nM
- TGI [8]: 4100 nM
- GI50 [9]: 1870 nM
- TGI [9]: 3300 nM
- GI50 [10]: 1370 nM
- TGI [10]: 2840 nM
- GI50 [11]: 1470 nM
- TGI [11]: 2790 nM
- GI50 [12]: 1280 nM
- TGI [12]: 2540 nM
- GI50 [13]: 1460 nM
- TGI [13]: 2900 nM
- GI50 [14]: 1510 nM
- TGI [14]: 2890 nM
- GI50 [15]: 1680 nM
- TGI [15]: 3220 nM
- GI50 [16]: 1090 nM
- TGI [16]: 2280 nM
- GI50 [17]: 580 nM
- TGI [17]: 1970 nM
- GI50 [18]: 1550 nM
- TGI [18]: 2980 nM
- GI50 [19]: 1770 nM
- TGI [19]: 3790 nM
- GI50 [20]: 1530 nM
- TGI [20]: 2950 nM
- GI50 [21]: 1610 nM
- TGI [21]: 3030 nM
- GI50 [22]: 1020 nM
- TGI [22]: 2260 nM
- GI50 [23]: 1640 nM
- TGI [23]: 2990 nM
- GI50 [24]: 1750 nM
- TGI [24]: 3240 nM
- GI50 [25]: 1490 nM
- TGI [25]: 3190 nM
- GI50 [26]: 1410 nM
- TGI [26]: 2770 nM
- GI50 [27]: 1860 nM
- TGI [27]: 3750 nM
- GI50 [28]: 1570 nM
- TGI [28]: 2910 nM
- GI50 [29]: 1640 nM
- TGI [29]: 3110 nM
- GI50 [30]: 1380 nM
- TGI [30]: 2800 nM
- GI50 [31]: 1520 nM
- TGI [31]: 2840 nM
- GI50 [32]: 1690 nM
- TGI [32]: 3170 nM
- GI50 [33]: 1640 nM
- TGI [33]: 3200 nM
- GI50 [34]: 1610 nM
- TGI [34]: 2960 nM
- GI50 [35]: 4420 nM
- TGI [35]: 18100 nM
- GI50 [36]: 8770 nM
- TGI [36]: 21900 nM
- GI50 [37]: 1090 nM
- TGI [37]: 2450 nM
- GI50 [38]: 2440 nM
- TGI [38]: 5520 nM
- GI50 [39]: 1770 nM
- TGI [39]: 3250 nM
- GI50 [41]: 1440 nM
- TGI [41]: 2830 nM
- GI50 [42]: 1640 nM
- TGI [42]: 3040 nM
- GI50 [43]: 1110 nM
- TGI [43]: 2310 nM
- GI50 [46]: 1640 nM
- TGI [46]: 3140 nM
- GI50 [47]: 1400 nM
- TGI [47]: 2700 nM
- GI50 [48]: 1540 nM
- TGI [48]: 2970 nM
- GI50 [49]: 1650 nM
- TGI [49]: 3070 nM
- GI50 [50]: 1510 nM
- TGI [50]: 2860 nM
- GI50 [51]: 1450 nM
- TGI [51]: 2850 nM
- GI50 [52]: 1580 nM
- TGI [52]: 2920 nM
- GI50 [53]: 1690 nM
- TGI [53]: 3500 nM
- GI50 [54]: 1440 nM
- TGI [54]: 2760 nM
- GI50 [55]: 1510 nM
- TGI [55]: 3010 nM
